Measurements reported in patent US20240174727A1, “LONG-ACTING NATRIURETIC PEPTIDES AND USES THEREOF” (Eli Lilly and Company, priority 2022, published 2024).
Where two headings read alike, the source gives them in different places. Numbered stars: 1 amine (or outer) side, 2 acyl side, 3 side chain; on linkers, the order of the positions; unused ones are H or OH. Bridge positions count the residues as written; N and C are the ends. Square brackets hold non-standard residues; d marks the D form. * marks the point of attachment. PEG24 = NCCOCCOCCOCCOCCOCCOCCOCCOCCOCCOCCOCCOCCOCCOCCOCCOCCOCCOCCOCCOCCOCCOCCOCCOCCC(=O)O; C20 diacid = O=C(O)CCCCCCCCCCCCCCCCCCC(=O)*; γGlu = O=C(O)[C@H](CCC(=O)[*:2])N[*:1]; 4Pal = N[C@@H](Cc1ccncc1)C(=O)O; CH2 = C([*:1])[*:2]; βAla = NCCC(=O)O

Assays:
human NPRA = molecular target: T1, human NPRA (Homo sapiens, UniProt P16066); assay: Human NPRA cGMP activity assay (HTRF) in HEK293 cells overexpressing NPRA; assay type: cell-based
T1 construct: Full-Length cDNA Cloning and Generation of Cell Lines Overexpressing Natriuretic Peptide Receptors (NPRs); expressed in transfected cells; host or cells: Jump-in T-Rex HEK293 cells, pJTI R4 CMV-TO MCS pA vector, tetracycline induction
T1 sequence (P16066 33-1061): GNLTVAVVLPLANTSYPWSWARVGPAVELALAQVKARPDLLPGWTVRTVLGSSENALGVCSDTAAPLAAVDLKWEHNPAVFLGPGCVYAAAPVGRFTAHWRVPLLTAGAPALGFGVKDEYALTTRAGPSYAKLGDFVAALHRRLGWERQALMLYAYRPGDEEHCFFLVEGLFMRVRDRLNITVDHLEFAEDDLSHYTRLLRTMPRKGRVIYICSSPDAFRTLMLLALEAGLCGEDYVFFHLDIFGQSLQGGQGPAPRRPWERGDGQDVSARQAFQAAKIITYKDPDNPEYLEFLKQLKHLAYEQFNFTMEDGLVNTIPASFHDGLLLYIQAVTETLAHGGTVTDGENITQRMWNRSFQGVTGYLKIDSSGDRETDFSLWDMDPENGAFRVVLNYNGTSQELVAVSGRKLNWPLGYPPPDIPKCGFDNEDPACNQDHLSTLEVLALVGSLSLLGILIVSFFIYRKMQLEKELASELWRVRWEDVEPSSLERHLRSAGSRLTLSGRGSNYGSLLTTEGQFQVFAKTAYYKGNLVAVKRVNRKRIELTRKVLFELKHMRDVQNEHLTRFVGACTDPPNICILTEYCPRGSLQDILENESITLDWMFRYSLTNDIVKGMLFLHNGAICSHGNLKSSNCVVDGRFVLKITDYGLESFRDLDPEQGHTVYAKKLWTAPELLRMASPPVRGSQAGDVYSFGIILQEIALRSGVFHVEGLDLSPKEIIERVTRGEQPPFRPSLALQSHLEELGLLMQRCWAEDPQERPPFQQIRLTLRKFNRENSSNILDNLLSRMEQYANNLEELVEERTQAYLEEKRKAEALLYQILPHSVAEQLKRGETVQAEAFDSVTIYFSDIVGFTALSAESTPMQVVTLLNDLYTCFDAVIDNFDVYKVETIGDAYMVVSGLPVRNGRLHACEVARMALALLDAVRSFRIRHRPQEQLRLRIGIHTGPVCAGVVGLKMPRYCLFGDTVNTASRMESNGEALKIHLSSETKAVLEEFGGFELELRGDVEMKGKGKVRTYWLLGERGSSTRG
Summary of the method: (§1)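 cGMP measured by HTRF and scaled between buffer (minimum) and 100 nM amidated rat ANP (maximum). Polypeptides in 10-fold steps from 10 μM to 1 pM, 0.5% DMSO, 0.5 mM IBMX, 40 min at room temperature, on induced NPRA-overexpressing HEK293 cells.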

[1] = Pharmacokinetics in male Sprague Dawley rats; assay type: in vivo; details: rat, sc, mean, single subcutaneous administration of 200 nMol/kg, plasma; for half-life: read-out: t½ (converted)
Experimental: The pharmacokinetics of the exemplary analogs are evaluated following a single subcutaneous administration of […] to male Sprague Dawley rats. Blood samples are collected over 120 hours, and resulting individual plasma concentrations are used to calculate pharmacokinetic parameters. Peptide plasma (K3 EDTA) concentrations are determined using a qualified LC/MS method that measured the intact mass of the ANP polypeptide. Each peptide and an analog as an internal standard are extracted from 100% specie specified plasma using methanol with 0.1% formic acid. A Thermo Q-Exactive, High Resolution Instrument, and a Thermo Easy Spray PepMap are combined for LC/MS detection.

rat NPRA = molecular target: T2, rat NPRA (Rattus norvegicus, UniProt P18910); assay: Rat NPRA cGMP activity assay (HTRF) in HEK293 cells overexpressing NPRA; assay type: cell-based; details: assay buffer with 0.1% casein, read-out: cGMP Assay (EC50, pM) w/Casein rNPRA
T2 construct: Full-Length cDNA Cloning and Generation of Cell Lines Overexpressing Natriuretic Peptide Receptors (NPRs); expressed in transfected cells; host or cells: Jump-in T-Rex HEK293 cells, pJTI R4 CMV-TO MCS pA vector, tetracycline induction
T2 sequence (P18910 29-1057): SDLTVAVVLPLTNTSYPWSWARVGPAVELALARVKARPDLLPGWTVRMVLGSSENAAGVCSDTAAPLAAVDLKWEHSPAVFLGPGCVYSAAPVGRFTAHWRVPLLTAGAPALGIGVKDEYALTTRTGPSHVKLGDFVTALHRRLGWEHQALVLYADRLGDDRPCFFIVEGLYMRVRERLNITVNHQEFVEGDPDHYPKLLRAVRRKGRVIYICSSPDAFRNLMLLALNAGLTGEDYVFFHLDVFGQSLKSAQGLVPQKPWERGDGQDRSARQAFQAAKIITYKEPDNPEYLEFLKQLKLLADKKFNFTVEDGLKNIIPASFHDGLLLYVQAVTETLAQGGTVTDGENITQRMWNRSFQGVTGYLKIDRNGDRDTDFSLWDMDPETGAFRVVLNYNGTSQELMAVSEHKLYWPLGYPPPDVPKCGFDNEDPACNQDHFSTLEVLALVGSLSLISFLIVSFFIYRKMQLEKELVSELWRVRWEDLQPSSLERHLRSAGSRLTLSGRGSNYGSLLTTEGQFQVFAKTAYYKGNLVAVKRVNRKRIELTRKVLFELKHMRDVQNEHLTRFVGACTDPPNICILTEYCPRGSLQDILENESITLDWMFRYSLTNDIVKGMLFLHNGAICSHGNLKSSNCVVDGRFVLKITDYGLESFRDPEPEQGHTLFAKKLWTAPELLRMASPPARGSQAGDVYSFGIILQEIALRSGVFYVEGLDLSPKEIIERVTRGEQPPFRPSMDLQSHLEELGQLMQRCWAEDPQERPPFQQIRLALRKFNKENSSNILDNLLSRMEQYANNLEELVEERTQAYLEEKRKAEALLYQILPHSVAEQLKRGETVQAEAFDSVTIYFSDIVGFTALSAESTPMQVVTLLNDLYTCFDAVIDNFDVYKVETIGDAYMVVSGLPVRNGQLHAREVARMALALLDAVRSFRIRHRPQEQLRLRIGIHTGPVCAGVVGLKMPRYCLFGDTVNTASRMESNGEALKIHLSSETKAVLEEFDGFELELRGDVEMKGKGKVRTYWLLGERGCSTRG
Summary of the method: as §1

| Compound | EC50 (human NPRA; cGMP Assay (EC50, pM) w/BSA hNPRA, assay buffer with 0.1% BSA) | CL/F [1] | half-life [1] | EC50 (human NPRA; cGMP Assay (EC50, pM) w/Casein hNPRA, assay buffer with 0.1% casein) | half-life ([1]; in vivo) | EC50 (rat NPRA) |
| --- | --- | --- | --- | --- | --- | --- |
| CC[C@H](C)[C@@H]1NC(=O)[C@H](CCCNC(=N)N)NC(=O)[C@H](CC(=O)O)NC(=O)[C@H]([C@@H](C)CC)NC(=O)[C@H](CCCNC(=N)N)NC(=O)CNC(=O)CNC(=O)[C@H](Cc2ccccc2)NC(=O)[C@@H](NC(=O)[C@H](CO)NC(=O)[C@H](CO)NC(=O)[C@H](CCCNC(=N)N)NC(=O)[C@H](CCCNC(=N)N)NC(=O)[C@H](Cc2ccncc2)NC(=O)[C@H](CO)NC(=O)CNC(=O)[C@H](CCCCN)NC(=O)[C@H](CCC(=O)O)NC(=O)[C@H](CCCCN)NC(=O)[C@H](CCC(=O)O)NC(=O)[C@H](CCCCN)NC(=O)[C@H](CCC(=O)O)NC(=O)CC[C@H](NC(=O)CCCCCCCCCCCCCCCCCCC(=O)O)C(=O)O)CSSC[C@@H](C(=O)N2CCC[C@H]2C(=O)N[C@@H](CO)C(=O)N[C@@H](Cc2ccccc2)C(=O)N[C@@H](CCCNC(=N)N)C(=O)N[C@@H](Cc2c[nH]cn2)C(=O)NCC(=O)NCC(=O)N2CCC[C@H]2C(=O)N[C@@H](CO)C(=O)N[C@@H](CO)C(=O)NCC(=O)N[C@@H](C)C(=O)N2CCC[C@H]2C(=O)N2CCC[C@H]2C(=O)N2CCC[C@H]2C(=O)N[C@@H](CO)C(N)=O)NC(=O)CNC(=O)[C@H](CC(C)C)NC(=O)CNC(=O)[C@H](CO)NC(=O)[C@H](CCC(N)=O)NC(=O)[C@H](Cc2c[nH]cn2)NC(=O)CNC1=O [Example 1] | 11600 pM | 0.343 mL/min/kg | 660 min | – | – | – |
| {C20 diacid-γGlu}-EKEKEKG[PEG24]EK[βAla]RSSCFGGKIDRIGHYSGLGCPSFRHGSPSSGAPPPS-NH2 (linker 15-31 via CH2) [Example 6] | – | 0.108 mL/min/kg | 1020 min | 1530 pM | – | – |
| {C20 diacid-γGlu}-EKEKEKG[PEG24]S[4Pal]RRSSCFGGRIDRIGHQSGLGCPSFRHGGKSSGAPPPS-NH2 (linker 15-31 via CH2) [Example 75] | – | 0.182 mL/min/kg | 1020 min | – | – | – |
| CC[C@H](C)[C@@H]1NC(=O)[C@H](CCCNC(=N)N)NC(=O)[C@H](CC(=O)O)NC(=O)[C@H]([C@@H](C)CC)NC(=O)[C@H](CCCNC(=N)N)NC(=O)CNC(=O)CNC(=O)[C@H](Cc2ccccc2)NC(=O)[C@@H](NC(=O)[C@H](CO)NC(=O)[C@H](CO)NC(=O)[C@H](CCCNC(=N)N)NC(=O)CCNC(=O)[C@H](CCCCN)NC(=O)[C@H](CCC(=O)O)NC(=O)CNC(=O)[C@H](CCCCN)NC(=O)[C@H](CCC(=O)O)NC(=O)[C@H](CCCCN)NC(=O)[C@H](CCC(=O)O)NC(=O)[C@H](CCCCN)NC(=O)[C@H](CCC(=O)O)NC(=O)CC[C@H](NC(=O)CCCCCCCCCCCCCCCCC(=O)O)C(=O)O)CSCSC[C@@H](C(=O)N2CCC[C@H]2C(=O)N[C@@H](CO)C(=O)N[C@@H](Cc2ccccc2)C(=O)N[C@@H](CCCNC(=N)N)C(=O)N[C@@H](Cc2c[nH]cn2)C(=O)NCC(=O)NCC(=O)N[C@@H](CCCCN)C(=O)N[C@@H](CO)C(=O)N[C@@H](CO)C(=O)NCC(=O)N[C@@H](C)C(=O)N2CCC[C@H]2C(=O)N2CCC[C@H]2C(=O)N2CCC[C@H]2C(=O)N[C@@H](CO)C(N)=O)NC(=O)CNC(=O)[C@H](CC(C)C)NC(=O)CNC(=O)[C@H](CO)NC(=O)[C@H](Cc2ccc(O)cc2)NC(=O)[C@H](Cc2c[nH]cn2)NC(=O)CNC1=O [Example 76] | – | 0.118 mL/min/kg | – | – | 1800 min | – |
| CC[C@H](C)[C@@H]1NC(=O)[C@H](CCCNC(=N)N)NC(=O)[C@H](CC(=O)O)NC(=O)[C@H]([C@@H](C)CC)NC(=O)[C@H](CCCNC(=N)N)NC(=O)[C@H](CCCCN)NC(=O)CNC(=O)[C@H](Cc2ccccc2)NC(=O)[C@@H](NC(=O)[C@H](CO)NC(=O)[C@H](CO)NC(=O)[C@H](CCCNC(=N)N)NC(=O)CCNC(=O)[C@H](CCCCN)NC(=O)[C@H](CCC(=O)O)NC(=O)CCOCCOCCOCCOCCOCCOCCOCCOCCOCCOCCOCCOCCOCCOCCOCCOCCOCCOCCOCCOCCOCCOCCOCCOCCNC(=O)CNC(=O)[C@H](CCCCN)NC(=O)[C@H](CCC(=O)O)NC(=O)[C@H](CCCCN)NC(=O)[C@H](CCC(=O)O)NC(=O)[C@H](CCCCN)NC(=O)[C@H](CCC(=O)O)NC(=O)CC[C@H](NC(=O)CCCCCCCCCCCCCCCCCCC(=O)O)C(=O)O)CSCSC[C@@H](C(=O)N2CCC[C@H]2C(=O)N[C@@H](CO)C(=O)N[C@@H](Cc2ccccc2)C(=O)N[C@@H](CCCNC(=N)N)C(=O)N[C@@H](Cc2c[nH]cn2)C(=O)NCC(=O)N[C@@H](CO)C(=O)N2CCC[C@H]2C(=O)N[C@@H](CO)C(=O)N[C@@H](CO)C(=O)NCC(=O)N[C@@H](C)C(=O)N2CCC[C@H]2C(=O)N2CCC[C@H]2C(=O)N2CCC[C@H]2C(=O)N[C@@H](CO)C(N)=O)NC(=O)CNC(=O)[C@H](CC(C)C)NC(=O)CNC(=O)[C@H](CO)NC(=O)[C@H](CCC(N)=O)NC(=O)[C@H](Cc2c[nH]cn2)NC(=O)CNC1=O [Example 4] | – | 0.0717 mL/min/kg | 900 min | – | – | 22500 pM |
| {C20 diacid-γGlu}-EKEKEKG[PEG24]EK[βAla]RSSCFGGKIDRIGHQSGLGCPSFRHGSPSSGAPPPS-NH2 (linker 15-31 via CH2) [Example 7] | – | 0.055 mL/min/kg | 1140 min | – | – | – |
